# Assay results as given in US20250051266A1, “Novel GLV-Phenolamide: Biosynthesis and Function in Protecting Plants from Herbivore Attack” (Max-Planck-Gesellschaft zur Förderung der Wissenschaften …, priority 2021, published 2025).
# “Also recorded” adds a separate entry of the source.
# Columns and labels:
# NaPPO1 = biological target: T1, NaPPO1 (Nicotiana attenuata, UniProt A0A1J6JLI9); experiment: In vitro enzyme assay, substrate specificity of NaPPO1; assay type: biochemical; details: incubated with NaPPO1 and (Z)-3-hexenal
# T1 sequence (A0A1J6JLI9 1-596): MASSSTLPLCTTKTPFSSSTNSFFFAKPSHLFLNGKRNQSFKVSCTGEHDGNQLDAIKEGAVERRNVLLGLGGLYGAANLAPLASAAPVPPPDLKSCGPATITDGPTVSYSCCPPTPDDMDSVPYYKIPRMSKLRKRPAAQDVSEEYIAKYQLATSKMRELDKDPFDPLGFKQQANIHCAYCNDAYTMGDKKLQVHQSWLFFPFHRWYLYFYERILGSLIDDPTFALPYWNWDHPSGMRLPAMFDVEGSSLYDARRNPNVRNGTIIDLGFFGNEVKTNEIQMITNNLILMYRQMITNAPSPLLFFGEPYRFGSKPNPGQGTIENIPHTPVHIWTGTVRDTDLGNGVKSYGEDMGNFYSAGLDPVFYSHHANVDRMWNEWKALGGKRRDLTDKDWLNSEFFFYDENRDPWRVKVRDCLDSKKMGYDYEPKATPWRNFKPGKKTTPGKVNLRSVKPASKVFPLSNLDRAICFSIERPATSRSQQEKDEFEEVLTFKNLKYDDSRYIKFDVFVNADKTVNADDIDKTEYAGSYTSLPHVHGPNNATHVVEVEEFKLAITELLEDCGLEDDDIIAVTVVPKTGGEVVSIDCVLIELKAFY
# Text: Extracted ion chromatograms (EIC) for doubly charged CP dimer (m/z 250.13) and m/z 347.19 in E. coli expressing NaPPO1 and NaPPO2 with CP and Z3H or (E)-2-hexenal. Compounds 1, 2, 3, 4 denote isomers of CP dimer; compounds 5, 6 denote isomers of m/z 347.19.
# FIG. 53 Substrate specificity of NaPPO1 and NaPPO2 enzymes. Overlay of total ion chromatograms (TIC) of enzyme assays for authentic chlorogenic acid (CGA std), N-coumaroylputrescine (CoP std), (Z)-3-hexenal or (E)-2-hexenal with purified NaPPO1/NaPPO2 from E. coli. Compounds 1 and 2 denote CGA and CoP; 3 and 4 denote contamination peaks from (Z)-3-hexenal and CoP standards, respectively.
# To test this hypothesis, purified NaPPO1, NaPPO2 and NaBBL2 proteins with N-terminal hexahistidine tags after expression in Escherichia coli were isolated (FIGS. 44-45). Incubation of either NaPPO1 or NaPPO2 (NaPPO1/2) with CP and (Z)-3-hexenal yielded a m/z 347.19 peak with identical MS/MS spectrum and retention time as the m/z 347.19 induced in N. attenuata leaves (FIG. 46). Additionally, by-products of doubly charged CP dimers at m/z 250.13 ([M+2H]2+, C26H36N4O62+) which are not detected in oral secretion-induced leaves of N. attenuata WT (Data 2) were also produced in vitro (FIG. 16 and FIG. 47). These doubly charged CP dimers were only produced when the quantities of the (Z)-3-hexenal substrate were lower than those of the CP substrate in vitro. […]
# In vitro assays of NaPPO1, NaPPO2, and NaBBL2: NaPPO1, NaPPO2, and NaBBL2 enzyme activity assays were performed by incubating 100 μg of the purified recombinant protein in 84 mM acetate buffer (pH 4.8) containing 20 mM (E)-N-caffeoylputrescine (BOC Sciences, catalogue #: B0005-053482) and 1 M cis-3-hexenal (Sigma, catalogue #: W256102-SAMPLE-K) or trans-2-hexenal (Sigma, catalogue #: W256005-1KG-K). During incubation of the enzyme reactions at 8° C., 1 μL of the reactions buffer was directly injected and analyzed by LC-MS every h to detect products. […]
# Empoasca decipiens = experiment: In vitro Empoasca non-choice (direct feeding) assay on artificial diet; assay type: in vivo; details: physiologically relevant concentrations (CoP 7 μM, CP 100 μM, FP 10 μM) in 10% glucose solution
# Procedure: FIG. 18 Mortality rates of in vitro Empoasca non-choice assays (n=4, 25 Empoasca leafhoppers per replicate) in which Empoasca were fed for 6 h with either 1 μM m/z 347.19 synthesized by using NaPPO1/NaPPO2 and CP and Z3H and diluted in 10% glucose solution or with 10% glucose as control (top). Empoasca in planta choice assays (n=8) conducted with VIGS plants of EV, PPO1, PPO2 and AT1 (bottom).
# To test if CPH is responsible for Empoasca resistance, E. decipiens were fed with physiologically relevant concentrations of 1 μM (estimated from field-collected elicited leaves) of NMR-confirmed CPH in diets containing 10% glucose in vitro. […] NaAT1 expression was silenced in N. attenuata plants using VIGS, which disrupted the production of both CP and the CPH (Li et al., Proc Natl Acad Sci USA 112, E4147-4155 (2015)) (FIG. 13).
# Empoasca feeding assays: The survival rate of Empoasca feeding on artificial diet (10% 5 sucrose in water) supplemented with caffeoylputrescine (CP, 100 μM), coumaroylputrescine (CoP, 7 μM), feruloylputrescine (FP, 10 μM), or the m/z 347.19 hexenyl derivative of CP (CPH, 1 μM) was recorded every 1 h overnight. The artificial feeding devices consisted of a 50-mL Falcon tube with a 7-mm hole drilled into the conical bottom through which the leafhoppers were aspi-rated into the tube and which then was covered with Parafilm punctured with needles to create ventilation holes. The large opening of the Falcon tube was covered with a double layer of Parafilm containing the liquid diet (100 μL). The artificial feeding devices were placed upside down with the liquid diet side down on a White Light Box (STRATAGENE) to provide bottom-light illu-mination.
substance,measurement,setting,value
N-coumaroylputrescine [CoP],acceptance as substrate (new products),NaPPO1,not accepted as substrates
same,changes in mortality rates of E. decipiens compared to glucose controls,Empoasca decipiens,no significant changes in mortality rates; also recorded: not affecting leafhopper behavior or performance
